Measurements taken from patent US20240109917A1 (ACTELION PHARMACEUTICALS LTD, priority 2020, published 2024).
Like-named read-outs stand apart in the source and are kept apart here.

Experiments:
PDGFRβ = PDGFRβ (Rattus norvegicus (Rat), UniProt Q05030); assay: PDGFRβ Cellular Assay (PDGFRb P-Y751 HTRF in A10 cells stimulated with PDGF-BB); type: cell-based
Procedure, shortened: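 Rat A10 cells, plated overnight, were treated with compound for 3 hours, then stimulated with PDGF-BB (working stock 100 ng/mL in 10% FBS medium). After lysis, PDGFRβ P-Y751 was detected by HTRF.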

VEGFR2, unphosphorylated = VEGFR2, unphosphorylated (Homo sapiens (Human), UniProt P35968); assay: VEGFR ADP GLO Assay; type: biochemical
Chain of VEGFR2, unphosphorylated (P35968 20-1356): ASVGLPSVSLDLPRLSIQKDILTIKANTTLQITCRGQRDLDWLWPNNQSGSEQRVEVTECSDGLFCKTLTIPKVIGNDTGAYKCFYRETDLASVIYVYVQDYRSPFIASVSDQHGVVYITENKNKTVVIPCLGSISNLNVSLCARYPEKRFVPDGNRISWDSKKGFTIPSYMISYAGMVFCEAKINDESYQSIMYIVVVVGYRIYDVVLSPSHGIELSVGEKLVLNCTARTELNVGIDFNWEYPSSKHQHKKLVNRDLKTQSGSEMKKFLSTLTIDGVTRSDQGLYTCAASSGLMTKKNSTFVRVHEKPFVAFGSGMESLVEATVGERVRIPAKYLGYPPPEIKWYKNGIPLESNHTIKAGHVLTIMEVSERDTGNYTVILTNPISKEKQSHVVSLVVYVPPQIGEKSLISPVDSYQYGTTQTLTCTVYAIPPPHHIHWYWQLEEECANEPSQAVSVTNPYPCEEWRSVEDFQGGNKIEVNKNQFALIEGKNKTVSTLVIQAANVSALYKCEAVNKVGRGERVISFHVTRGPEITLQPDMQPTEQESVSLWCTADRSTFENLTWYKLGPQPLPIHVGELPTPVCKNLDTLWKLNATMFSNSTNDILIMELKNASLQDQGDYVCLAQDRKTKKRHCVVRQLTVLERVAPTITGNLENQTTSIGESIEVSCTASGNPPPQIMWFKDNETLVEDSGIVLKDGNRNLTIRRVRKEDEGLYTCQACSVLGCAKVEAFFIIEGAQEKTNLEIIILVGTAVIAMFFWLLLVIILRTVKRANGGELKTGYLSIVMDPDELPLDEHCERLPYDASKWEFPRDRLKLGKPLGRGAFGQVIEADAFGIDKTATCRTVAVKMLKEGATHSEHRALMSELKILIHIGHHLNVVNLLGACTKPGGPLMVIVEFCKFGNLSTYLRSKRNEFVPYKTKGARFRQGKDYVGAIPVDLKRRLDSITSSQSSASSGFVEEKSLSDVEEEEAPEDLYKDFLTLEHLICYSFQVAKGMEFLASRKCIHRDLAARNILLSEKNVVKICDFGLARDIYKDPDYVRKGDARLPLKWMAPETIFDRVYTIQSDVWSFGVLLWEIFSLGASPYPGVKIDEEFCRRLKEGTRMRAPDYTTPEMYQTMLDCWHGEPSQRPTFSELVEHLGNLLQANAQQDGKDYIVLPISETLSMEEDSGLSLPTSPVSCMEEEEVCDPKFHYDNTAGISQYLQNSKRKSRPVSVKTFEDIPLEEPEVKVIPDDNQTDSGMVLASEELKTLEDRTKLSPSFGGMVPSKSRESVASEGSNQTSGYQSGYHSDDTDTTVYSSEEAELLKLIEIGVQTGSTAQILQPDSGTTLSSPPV

Chain of PDGFRβ (Q05030 32-1097): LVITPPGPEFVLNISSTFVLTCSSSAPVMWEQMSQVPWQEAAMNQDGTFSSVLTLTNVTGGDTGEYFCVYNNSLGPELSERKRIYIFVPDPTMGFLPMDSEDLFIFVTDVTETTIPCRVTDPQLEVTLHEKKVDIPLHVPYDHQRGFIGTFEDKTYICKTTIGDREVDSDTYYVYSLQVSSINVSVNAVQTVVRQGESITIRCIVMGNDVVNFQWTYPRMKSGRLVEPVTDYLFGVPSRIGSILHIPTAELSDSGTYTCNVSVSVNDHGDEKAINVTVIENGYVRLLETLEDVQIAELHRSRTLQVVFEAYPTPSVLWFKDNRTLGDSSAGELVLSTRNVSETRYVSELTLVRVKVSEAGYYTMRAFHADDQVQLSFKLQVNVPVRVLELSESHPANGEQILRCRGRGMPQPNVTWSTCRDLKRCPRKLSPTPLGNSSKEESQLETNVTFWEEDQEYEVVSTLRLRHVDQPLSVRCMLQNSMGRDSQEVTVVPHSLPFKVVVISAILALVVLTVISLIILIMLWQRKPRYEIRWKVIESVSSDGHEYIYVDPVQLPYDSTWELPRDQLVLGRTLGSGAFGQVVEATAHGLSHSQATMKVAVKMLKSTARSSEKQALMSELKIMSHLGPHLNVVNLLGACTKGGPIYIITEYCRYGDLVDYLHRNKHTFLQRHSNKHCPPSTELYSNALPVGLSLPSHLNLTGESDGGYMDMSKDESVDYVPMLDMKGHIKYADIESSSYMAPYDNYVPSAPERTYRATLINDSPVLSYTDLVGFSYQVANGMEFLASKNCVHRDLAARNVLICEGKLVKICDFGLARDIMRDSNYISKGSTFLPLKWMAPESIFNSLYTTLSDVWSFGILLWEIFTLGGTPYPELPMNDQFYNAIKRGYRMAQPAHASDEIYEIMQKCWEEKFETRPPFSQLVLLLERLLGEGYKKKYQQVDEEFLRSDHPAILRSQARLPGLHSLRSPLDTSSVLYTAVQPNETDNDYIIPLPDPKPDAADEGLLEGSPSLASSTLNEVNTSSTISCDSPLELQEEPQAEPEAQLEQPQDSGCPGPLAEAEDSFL

SMILES | IC50 (PDGFRβ; read-out: PDGFR Cellular IC50) [nM] | IC50 (VEGFR2, unphosphorylated) [nM] | IC50 (PDGFRβ; PDGFR Cellular IC50) [nM]
Cc1ncc(NC(=O)CN2CC3CCC(C2)O3)cc1NC(=O)c1cnn2cc(-c3cc[nH]c3)sc12 [Example 366, N-(5-(2-(8-oxa-3-azabicyclo[3.2.1]octan-3-yl)acetamido)-2-methylpyridin-3-yl)-2-(1H-pyrrol-3-yl)pyrazolo[5,1-b]thiazole-7-carboxamide] | 7.7 | 571 | –
COc1ccncc1-c1cn2ncc(C(=O)Nc3cc(NC(=O)CN4C[C@H](C)O[C@@H](C)C4)cnc3C)c2s1 (relative stereo) [Example 385, N-(5-(2-(trans-2,6-dimethylmorpholino)acetamido)-2-methylpyridin-3-yl)-2-(4-methoxypyridin-3-yl)pyrazolo[5,1-b]thiazole-7-carboxamide] | 9.5 | > 833 | –
Cc1ncc(NC(=O)[C@@H]2CCCN2C(C)C)cc1NC(=O)c1cnn2cc(-c3cnn4c3OCCC4)sc12 [Example 346, (S)-2-(6,7-dihydro-5H-pyrazolo[5,1-b][1,3]oxazin-3-yl)-N-(5-(1-isopropylpyrrolidine-2-carboxamido)-2-methylpyridin-3-yl)pyrazolo[5,1-b]thiazole-7-carboxamide] | 6.8 | > 7500 | –
Cc1ncc(NC(=O)C2CCN(C(C)C)C2)cc1NC(=O)c1cnn2cc(-c3cnn(C)c3C)sc12 (stereo not shown) [Example 356, 2-(1,5-dimethyl-1H-pyrazol-4-yl)-N-(5-(1-isopropylpyrrolidine-3-carboxamido)-2-methylpyridin-3-yl)pyrazolo[5,1-b]thiazole-7-carboxamide] | – | > 7500 | 74.6
CCn1nccc1-c1cn2ncc(C(=O)Nc3cc(NC(=O)CN4CC(C)(C)C4)cnc3C)c2s1 [Example 388, N-(5-(2-(3,3-dimethylazetidin-1-yl)acetamido)-2-methylpyridin-3-yl)-2-(1-ethyl-1H-pyrazol-5-yl)pyrazolo[5,1-b]thiazole-7-carboxamide] | 5.1 | > 7500 | –
Cc1ncc(NC(=O)CN2C[C@H](C)O[C@@H](C)C2)cc1NC(=O)c1cnn2cc(-c3cnn(C4CC4)c3)sc12 (relative stereo) [Example 382, 2-(1-cyclopropyl-1H-pyrazol-4-yl)-N-(5-(2-(trans-2,6-dimethylmorpholino)acetamido)-2-methylpyridin-3-yl)pyrazolo[5,1-b]thiazole-7-carboxamide] | 7.6 | > 2500 | –
Cc1ncc(NC(=O)CN2CCC[C@@H]2C)cc1NC(=O)c1cnn2cc(-c3ccnc(N4CCOCC4)c3)sc12 [Example 352, (S)—N-(2-methyl-5-(2-(2-methylpyrrolidin-1-yl)acetamido)pyridin-3-yl)-2-(2-morpholinopyridin-4-yl)pyrazolo[5,1-b]thiazole-7-carboxamide] | 2.8 | > 7500 | –
COCCn1cc(-c2cn3ncc(C(=O)Nc4cc(NC(=O)CN5CCC(C6CC6)C5)cnc4C)c3s2)cn1 (stereo not shown) [Example 341, N-(5-(2-(3-cyclopropylpyrrolidin-1-yl)acetamido)-2-methylpyridin-3-yl)-2-(1-(2-methoxyethyl)-1H-pyrazol-4-yl)pyrazolo[5,1-b]thiazole-7-carboxamide] | 5.1 | > 7500 | –
COCCn1cc(-c2cn3ncc(C(=O)Nc4cc(NC(=O)CN5CCCC56CCC6)cnc4C)c3s2)cn1 [Example 332, N-(5-(2-(5-azaspiro[3.4]octan-5-yl)acetamido)-2-methylpyridin-3-yl)-2-(1-(2-methoxyethyl)-1H-pyrazol-4-yl)pyrazolo[5,1-b]thiazole-7-carboxamide] | 4.5 | > 7500 | –
COc1cc(-c2cn3ncc(C(=O)Nc4cc(NC(=O)CN5CC(C)(C)C5)cnc4C)c3s2)c(OC)nn1 [Example 393, 2-(3,6-dimethoxypyridazin-4-yl)-N-(5-(2-(3,3-dimethylazetidin-1-1)acetamido)-2-methylpyridin-3-yl)pyrazolo[5,1-b]thiazole-7-carboxamide] | 3.5 | > 7500 | –
COCCCc1cn2ncc(C(=O)Nc3cc(C(=O)NCCN4CCCC4(C)C)cnc3C)c2s1 [Example 360, N-(5-((2-(2,2-dimethylpyrrolidin-1-yl)ethyl)carbamoyl)-2-methylpyridin-3-yl)-2-(3-methoxypropyl)pyrazolo[5,1-b]thiazole-7-carboxamide] | – | > 7500 | 59.2
COc1ncccc1-c1cn2ncc(C(=O)Nc3cc(NC(=O)CN4CC5(COC5)C4)cnc3C)c2s1 [Example 404, N-(5-(2-(2-oxa-6-azaspiro[3.3]heptan-6-yl)acetamido)-2-methylpyridin-3-yl)-2-(2-methoxypyridin-3-yl)pyrazolo[5,1-b]thiazole-7-carboxamide] | 7.2 | > 7500 | –
COc1ncccc1-c1cn2ncc(C(=O)Nc3cc(NC(=O)CN4CC(C)C4)cnc3C)c2s1 [Example 405, 2-(2-methoxypyridin-3-yl)-N-(2-methyl-5-(2-(3-methylazetidin-1-yl)acetamido)pyridin-3-yl)pyrazolo[5,1-b]thiazole-7-carboxamide] | 3.8 | 6660 | –
Cc1ncc(NC(=O)CN2CCC3(CC3)C2)cc1NC(=O)c1cnn2cc(-c3cnn(CCO)c3)sc12 [Example 32, N-(5-(2-(5-azaspiro[2.4]heptan-5-yl)acetamido)-2-methylpyridin-3-yl)-2-(1-(2-hydroxyethyl)-1H-pyrazol-4-yl)pyrazolo[5,1-b]thiazole-7-carboxamide] | 20.5 | > 7500 | –
COc1cnccc1-c1cn2ncc(C(=O)Nc3cc(NC(=O)CN4CC(C)(C)C4)cnc3C)c2s1 [Example 399, N-(5-(2-(3,3-dimethylazetidin-1-yl)acetamido)-2-methylpyridin-3-yl)-2-(3-methoxypyridin-4-yl)pyrazolo[5,1-b]thiazole-7-carboxamide] | 1.3 | 4770 | –
Cc1ncc(NC(=O)CN2CCC23CCC3)cc1NC(=O)c1cnn2cc(-c3ccnc(N4CCOCC4)c3)sc12 [Example 353, N-(5-(2-(1-azaspiro[3.3]heptan-1-yl)acetamido)-2-methylpyridin-3-yl)-2-(2-morpholinopyridin-4-yl)pyrazolo[5,1-b]thiazole-7-carboxamide] | 1.6 | > 7500 | –
Cc1ncc(NC(=O)CN2CCCC[C@H]2C)cc1NC(=O)c1cnn2cc(-c3cnn(CCO)c3)sc12 [Example 33, (R)-2-(1-(2-hydroxyethyl)-1H-pyrazol-4-yl)-N-(2-methyl-5-(2-(2-methyl-piperidin-1-yl)acetamido)pyridin-3-yl)pyrazolo[5,1-b]thiazole-7-carboxamide] | – | > 7500 | 10.1
Cc1ncc(NC(=O)CN2CCC3(CCC3)C2)cc1NC(=O)c1cnn2cc(-c3cnn(CCO)c3)sc12 [Example 30, N-(5-(2-(6-azaspiro[3.4]octan-6-yl)acetamido)-2-methylpyridin-3-yl)-2-(1-(2-hydroxyethyl)-1H-pyrazol-4-yl)pyrazolo[5,1-b]thiazole-7-carboxamide] | 16.5 | > 7500 | –
Cc1ncc(NC(=O)CN2C[C@@H](CO)O[C@@H](C)C2)cc1NC(=O)c1cnn2cc(-c3cnn(C)c3)sc12 (relative stereo) [Example 378, N-(5-(2-(cis-2-(hydroxymethyl)-6-methylmorpholino)acetamido)-2-methylpyridin-3-yl)-2-(1-methyl-1H-pyrazol-4-yl)pyrazolo[5,1-b]thiazole-7-carboxamide] | 304 | > 2500 | –
Cc1ncc(NS(=O)(=O)CCN2CC3CCC2CC3)cc1NC(=O)c1cnn2cc(-c3cnn(C)c3)sc12 [Example 358, N-(5-((2-(2-azabicyclo[2.2.2]octan-2-yl)ethyl)sulfonamido)-2-methylpyridin-3-yl)-2-(1-methyl-1H-pyrazol-4-yl)pyrazolo[5,1-b]thiazole-7-carboxamide] | 941 | > 7500 | –
Cc1ncc(NC(=O)C2CN(C(C)C)C2)cc1NC(=O)c1cnn2cc(-c3cnn4c3OCCC4)sc12 [Example 348, 2-(6,7-dihydro-5H-pyrazolo[5,1-b][1,3]oxazin-3-yl)-N-(5-(1-isopropylazetidine-3-carboxamido)-2-methylpyridin-3-yl)pyrazolo[5,1-b]thiazole-7-carboxamide] | 195 | > 7500 | –
Cc1ncc(NC(=O)CN2C[C@H](C)O[C@@H](C)C2)cc1NC(=O)c1cnn2cc(-c3c[nH]nc3C)sc12 (relative stereo) [Example 371, N-(5-(2-(trans-2,6-dimethylmorpholino)acetamido)-2-methylpyridin-3-yl)-2-(3-methyl-1H-pyrazol-4-yl)pyrazolo[5,1-b]thiazole-7-carboxamide] | 29.3 | > 2500 | –
Cc1ncc(NC(=O)CN2CCC3(CC2)CC3)cc1NC(=O)c1cnn2cc(-c3cnn(CCO)c3)sc12 [Example 31, N-(5-(2-(6-azaspiro[2.5]octan-6-yl)acetamido)-2-methylpyridin-3-yl)-2-(1-(2-hydroxyethyl)-1H-pyrazol-4-yl)pyrazolo[5,1-b]thiazole-7-carboxamide] | 11.1 | > 7500 | –
Cc1ncc(NC(=O)C2CCN(C(C)C)C2)cc1NC(=O)c1cnn2cc(-c3cn(C)nc3C)sc12 (stereo not shown) [Example 355, 2-(1,3-dimethyl-1H-pyrazol-4-yl)-N-(5-(1-isopropylpyrrolidine-3-carboxamido)-2-methylpyridin-3-yl)pyrazolo[5,1-b]thiazole-7-carboxamide] | 50.3 | > 7500 | –
COCCn1cc(-c2cn3ncc(C(=O)Nc4cc(NC(=O)C5CN(C(C)C)C5)cnc4C)c3s2)cn1 [Example 342, N-(5-(1-isopropylazetidine-3-carboxamido)-2-methylpyridin-3-yl)-2-(1-(2-methoxyethyl)-1H-pyrazol-4-yl)pyrazolo[5,1-b]thiazole-7-carboxamide] | 339 | > 7500 | –
Cc1ncc(NC(=O)CN2CC(C)(C)C2)cc1NC(=O)c1cnn2cc(-c3cncnc3C)sc12 [Example 398, N-(5-(2-(3,3-dimethylazetidin-1-yl)acetamido)-2-methylpyridin-3-yl)-2-(4-methylpyrimidin-5-yl)pyrazolo[5,1-b]thiazole-7-carboxamide] | 169 | > 7500 | –
